Data on three compounds can be found in paper PMC6410325, “Dual BACE1 and Cholinesterase Inhibitory Effects of Phlorotannins from Ecklonia cava—An In Vitro and in Silico Study” (Marine Drugs, 2019).

For orientation: Ki means the dissociation constant of the complex between target and ligand, obtained from inhibition or displacement. Lower therefore signals higher affinity. In general, IC50 refers to the point on the concentration scale where inhibition reaches its midpoint.

Data set [1] has as its target T1, BACE1 (Homo sapiens, UniProt P56817).
T1 construct: purchased Invitrogen (Pan Vera, Madison, WI, USA)
The experiment in a line: Enzyme kinetic study of BACE1 inhibition (Dixon and Lineweaver–Burk plots). The note with it: for Ki: Dixon plot; for Inhibition Mode BACE1: Lineweaver–Burk plot. The data set is classed as biochemical. The procedure: (§1) Fluorometric assays with a recombinant human BACE1 or TACE were conducted according to manufacturer instructions. Briefly, reaction mixtures containing human recombinant BACE1 (1.0 U/mL), the substrate (75 μM in 50 mM ammonium bicarbonate), and phlorotannins dissolved in an assay buffer (50 mM sodium acetate, pH 4.5) were incubated in darkness for 60 min at 25 °C in well plates. The increase in fluorescence intensity produced by substrate hydrolysis was observed on a fluorescence microplate reader with excitation and emission wavelengths of 545 and 590 nm, respectively. The inhibition ratio was obtained using the following equation:Inhibition (%) = [1 − (S − S0)/(C − C0)] × 100 where C was the fluorescence of control (enzyme, assay buffer, and substrate) after 60 min of incubation, C0 was the fluorescence of control at time 0, S was the fluorescence of tested samples (enzyme, sample solution, and substrate) after 60 min of incubation, and S0 was the fluorescence of the tested samples at time 0.
(§2) To evaluate the kinetic mechanisms of phlorotannins towards BACE1 and AChE, Dixon and Lineweaver–Burk plots were conducted by various concentrations of substrate and inhibitors. Kinetic parameters such as Ki, Vmax, and Km values were calculated by Sigma Plot 12.3 (Systat Software, Inc., San Jose, CA, USA)

Data set [2] deals with T2, human recombinant TACE (α-secretase) (Homo sapiens, UniProt P78536).
T2 construct: purchased R&D Systems (Minneapolis, MN, USA)
T2 sequence (P78536 215-824): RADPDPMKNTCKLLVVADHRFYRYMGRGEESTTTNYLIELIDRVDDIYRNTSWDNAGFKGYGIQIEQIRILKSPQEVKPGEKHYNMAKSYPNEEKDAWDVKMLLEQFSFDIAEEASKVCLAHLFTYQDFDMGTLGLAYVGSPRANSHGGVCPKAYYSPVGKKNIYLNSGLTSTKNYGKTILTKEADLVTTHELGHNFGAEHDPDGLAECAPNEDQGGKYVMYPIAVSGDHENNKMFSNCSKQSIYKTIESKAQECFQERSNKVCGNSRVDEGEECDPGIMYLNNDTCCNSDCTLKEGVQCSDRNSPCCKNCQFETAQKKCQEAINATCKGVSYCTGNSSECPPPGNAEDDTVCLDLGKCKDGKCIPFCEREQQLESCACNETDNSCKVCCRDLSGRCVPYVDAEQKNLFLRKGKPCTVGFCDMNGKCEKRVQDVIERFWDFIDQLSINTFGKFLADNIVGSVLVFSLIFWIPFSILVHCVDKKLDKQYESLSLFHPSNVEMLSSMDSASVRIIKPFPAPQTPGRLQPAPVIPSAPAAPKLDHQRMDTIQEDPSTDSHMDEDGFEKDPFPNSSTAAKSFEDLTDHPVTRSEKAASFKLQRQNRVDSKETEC
As to the kind of experiment: Fluorometric TACE inhibition assay. The note with it: mean ± SD, read-out: Inhibitory activity TACE (α-Secretase); for inhibition at 50 µM: 50 μM compound; for inhibition at 100 µM: 100 μM compound. The data set is classed as biochemical. The procedure: as §1
A human recombinant TACE (0.1 ppm in 25 mM Tris buffer), the substrate (APP peptide […] using EDANS/DABCYL), and phlorotannins were dissolved in an assay buffer, which were then combined and incubated for 60 min in the dark at 25 °C. The increase in fluorescence intensity produced by substrate hydrolysis was observed on a fluorescence microplate reader with excitation and emission wavelengths of 320 and 405 nm, respectively.

For data set [3] the following is noted: cited from earlier work.
Data set [4] addresses T1, BACE1. As to the kind of experiment: Fluorometric BACE1 inhibition assay. Type of data set: biochemical. The conditions noted are these: three independent experiments; log dose inhibition curve; read-out: IC50 (mean ± SD) BACE1.
Experimental: Fluorometric assays with a recombinant human BACE1 or TACE were conducted according to manufacturer instructions. […] The inhibition ratio was obtained using the following equation:Inhibition (%) = [1 − (S − S0)/(C − C0)] × 100 where C was the fluorescence of control (enzyme, assay buffer, and substrate) after 60 min of incubation, C0 was the fluorescence of control at time 0, S was the fluorescence of tested samples (enzyme, sample solution, and substrate) after 60 min of incubation, and S0 was the fluorescence of the tested samples at time 0.
Data set [5] concerns HIV-reverse transcriptase. The conditions noted are these: compared with 8,4′′′-dieckol (diphenyl ether linkage); cited from earlier work.
For data set [6], the system named is trypsin. As to the kind of experiment: Colorimetric trypsin inhibition assay. Type of data set: biochemical. The conditions noted are these: mean ± SD. On the procedure: (§3) The colorimetric assays, including AChE, trypsin, chymotrypsin, and elastase were assayed according to previously described methods. The hydrolysis of AChE was monitored according to the formation of yellow 5-thio-2-nitrobenzoate anions at 405 nm for 15 min, which were produced by the reaction of DTNB with thiocholine released from ACh. All reactions were performed in 96-well plates in triplicate and recorded using a microplate spectrophotometer.
(§4) N-benzoyl-L-Arg-pNA, N-benzoyl-L-Tyr-pNA, and N-succinyl-Ala-Ala-Ala-pNA were used as substrates to assay the inhibition of trypsin, chymotrypsin, and elastase, respectively. Enzyme, Tris-HCl buffer (0.05 M, in 0.02 M CaCl2, pH 8.2), and phlorotannins were incubated for 10 min at 25 °C; then, substrate was added for 30 min at 37 °C. The absorbance was recorded at 410 nm. The inhibition ratio was obtained using the following equation:Inhibition (%) = {[1 − (A − B)]/control} × 100 where A was the absorbance of the control (enzyme, assay buffer, and substrate) after 60 min of incubation, and B was the absorbance of tested sample (assay buffer and sample solution) after 60 min of incubation.

For data set [7], the target named is hyaluronidase. The conditions noted are these: previous study; read-out: IC50 against hyaluronidase; cited from earlier work.
Data set [8] addresses T3, chymotrypsin (Bos taurus, UniProt P00766).
T3 construct: purchased Sigma-Aldrich (St. Louis, MO, USA)
As to the kind of experiment: Colorimetric chymotrypsin inhibition assay. The data set is classed as biochemical. The conditions noted are these: mean ± SD, read-out: Inhibitory activity Chymotrypsin; for inhibition at 50 µM: 50 μM compound; for inhibition at 100 µM: 100 μM compound. The procedure: as §3, §4

Data set [9] has as its target T4, AChE from Electrophorus electricus (electric eel) (Electrophorus electricus, UniProt O42275).
T4 construct: purchased Sigma-Aldrich (St. Louis, MO, USA)
The experiment in a line: Colorimetric AChE inhibition assay (DTNB). Type of data set: biochemical. The conditions noted are these: three independent experiments; log dose inhibition curve; read-out: IC50 (mean ± SD) AChE.
Experimental: The colorimetric assays, including AChE, trypsin, chymotrypsin, and elastase were assayed according to previously described methods [36]. […] All reactions were performed in 96-well plates in triplicate and recorded using a microplate spectrophotometer.

The target of data set [10] is T5, AChE (Electrophorus electricus, UniProt O42275).
T5 construct: purchased Sigma-Aldrich (St. Louis, MO, USA)
T5 sequence (O42275 24-633): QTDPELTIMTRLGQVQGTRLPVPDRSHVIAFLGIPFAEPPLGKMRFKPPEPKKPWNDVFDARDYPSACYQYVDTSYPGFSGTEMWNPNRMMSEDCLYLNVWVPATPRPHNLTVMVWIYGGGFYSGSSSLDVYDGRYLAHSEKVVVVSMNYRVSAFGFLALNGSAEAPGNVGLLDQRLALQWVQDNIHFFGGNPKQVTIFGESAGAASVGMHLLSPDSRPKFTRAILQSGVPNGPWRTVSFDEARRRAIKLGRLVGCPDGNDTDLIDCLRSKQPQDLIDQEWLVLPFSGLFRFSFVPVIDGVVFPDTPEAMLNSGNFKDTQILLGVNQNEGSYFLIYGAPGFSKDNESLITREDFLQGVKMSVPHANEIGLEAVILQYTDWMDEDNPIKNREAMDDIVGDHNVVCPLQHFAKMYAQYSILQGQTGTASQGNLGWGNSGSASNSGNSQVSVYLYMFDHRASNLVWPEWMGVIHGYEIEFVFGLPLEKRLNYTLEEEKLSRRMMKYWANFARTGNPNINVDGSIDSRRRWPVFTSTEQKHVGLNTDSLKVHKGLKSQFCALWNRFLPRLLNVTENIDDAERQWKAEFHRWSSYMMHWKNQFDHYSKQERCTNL
The experiment in a line: Enzyme kinetic study of AChE inhibition (Dixon and Lineweaver–Burk plots). Type of data set: biochemical, Electrophorus electricus (electric eel). The note with it: for Ki: Dixon plot; for Inhibition Mode AChE: Lineweaver–Burk plot. On the procedure:
as §3, §2

For data set [11], the target named is T6, elastase (Sus scrofa, UniProt P00772).
T6 construct: purchased Sigma-Aldrich (St. Louis, MO, USA)
T6 sequence (P00772 27-266): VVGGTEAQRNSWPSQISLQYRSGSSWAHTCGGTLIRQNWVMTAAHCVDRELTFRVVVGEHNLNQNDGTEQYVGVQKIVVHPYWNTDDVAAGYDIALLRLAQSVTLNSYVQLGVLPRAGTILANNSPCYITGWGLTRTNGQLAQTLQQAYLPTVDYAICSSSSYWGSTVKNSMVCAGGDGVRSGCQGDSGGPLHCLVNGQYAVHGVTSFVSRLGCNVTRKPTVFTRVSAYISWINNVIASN
As to the kind of experiment: Colorimetric elastase inhibition assay. Type of data set: biochemical. The note with it: mean ± SD, read-out: Inhibitory activity Elastase; for inhibition at 50 µM: 50 μM compound; for inhibition at 100 µM: 100 μM compound. On the procedure:
as §3, §4

Data set [12] concerns ethanol-induced memory impairment mice. The conditions noted are these: oral administration, 10 mg/kg; cited from earlier work.
In data set [13] the test system is BACE1. The conditions noted are these: phlorotannins from Eisenia bicyclis; cited from earlier work.
For data set [14] the following is noted: cited from earlier work. The source holds these as a separate data set.
The subject of data set [15] is murine hippocampus neuronal cells. The note with it: cited from earlier work.

T4 sequence (O42275 24-633): as the sequence (O42275 24-633) above
T1 sequence (P56817 46-501): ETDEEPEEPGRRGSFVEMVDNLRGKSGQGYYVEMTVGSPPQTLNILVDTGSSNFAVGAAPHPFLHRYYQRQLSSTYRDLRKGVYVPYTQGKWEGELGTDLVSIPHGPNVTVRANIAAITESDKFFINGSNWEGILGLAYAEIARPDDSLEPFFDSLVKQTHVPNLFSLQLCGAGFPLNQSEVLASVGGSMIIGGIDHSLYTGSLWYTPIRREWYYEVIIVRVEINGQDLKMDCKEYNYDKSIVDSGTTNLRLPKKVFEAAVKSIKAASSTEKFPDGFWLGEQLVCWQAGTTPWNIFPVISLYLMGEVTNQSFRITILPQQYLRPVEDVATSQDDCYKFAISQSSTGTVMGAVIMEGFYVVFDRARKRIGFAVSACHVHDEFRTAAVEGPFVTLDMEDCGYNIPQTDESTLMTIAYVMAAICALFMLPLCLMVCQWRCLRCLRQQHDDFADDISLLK

Consider `Oc1cc(O)cc(Oc2c(O)cc(O)c3c2Oc2c(cc(O)c(-c4c(O)cc5c(c4O)Oc4c(Oc6cc(O)cc(O)c6)c(O)cc(O)c4O5)c2O)O3)c1` [8,8′-Bieckol, 9-(3,5-dihydroxyphenoxy)-2-[9-(3,5-dihydroxyphenoxy)-1,3,6,8-tetrahydroxydibenzo-p-dioxin-2-yl]dibenzo-p-dioxin-1,3,6,8-tetrol], for which the figures for the Ki in [1] and in [10] were 13.9 µM and 11.4 µM, respectively. For the same compound, in data set [1], the “Inhibition Mode BACE1” value is “Non-competitive”. Further, the inhibition at 50 µM stood at 11.1 ± 0.53% in data set [2], 0.86 ± 0.02% in [8] and 5.26 ± 0.43% in data set [11]. For the same compound, the inhibition at 100 µM in data set [2] was 3.57 ± 0.05%; in data set [8] it was 0.33 ± 0.01%; in data set [11] it was 7.52 ± 0.24%. Further, the “Lipinski's requirements for acceptable oral bioavailability” value (shortened to “Lipinski's requirements”) in [3] is on record as “have limitations on bioavailability”. In addition, the IC50 is 1.62 ± 0.14 µM in [4], 40 µM in [7] and 4.59 ± 0.32 µM in data set [9]. Besides, in data set [5], the “Inhibitory effect on HIV-reverse transcriptase relative to 8,4′′′-dieckol” value was “tenfold higher”. Besides, the “Inhibitory activity Trypsin” value in data set [6] (50 μM compound) was 2.98 ± 0.26%; in data set [6] (100 μM compound) it was −23.05 ± 0.32%. The “Inhibition Mode AChE” value in data set [10] was “Competitive”.

`Oc1cc(O)cc(Oc2c(O)cc(O)c3c2Oc2c(O)cc(Oc4c(O)cc(Oc5c(O)cc(O)c6c5Oc5c(O)cc(O)cc5O6)cc4O)cc2O3)c1` [Dieckol, 4-[4-[6-(3,5-dihydroxyphenoxy)-4,7,9-trihydroxydibenzo-p-dioxin-2-yl]oxy-3,5-dihydroxyphenoxy]dibenzo-p-dioxin-1,3,6,8-tetrol]: in [12], the Cognitive ability entry is listed as “improved cognitive ability”. The values for the Ki in [1] and in data set [10] were 20.1 µM and 12.3 µM, respectively. Besides, the “Inhibition Mode BACE1” value in data set [1] is on record as “Non-competitive”. In addition, the inhibition at 50 µM in data set [2] came to 16.9 ± 1.01%; in data set [8], 4.39 ± 0.44%; in data set [11] it was 6.7 ± 0.85%. The inhibition at 100 µM is 18.3 ± 0.41% in data set [2], 1.43 ± 0.02% in [8] and 6.2 ± 0.14% in data set [11]. Besides, the “BACE1 inhibitory effect, relative” value in data set [13] is reported as “stronger than eckol”. The “Lipinski's requirements” value in data set [3] was “have limitations on bioavailability”. Besides, the values for the IC50 in data set [4], in [7] and in data set [9] were 2.34 ± 0.1 µM, 120 µM and 5.69 ± 0.42 µM, respectively. In addition, the figures for the “Inhibitory activity Trypsin” value in data set [6] (50 μM compound) and in data set [6] (100 μM compound) were 6.44 ± 0.76% and −16.64 ± 1.40%, respectively. Also, the “Penetration into the brain across the blood–brain barrier” value in [14] was “successfully penetrated into the brain via crossing the blood–brain barrier”. Also, the H2O2-induced oxidative stress result in [15] was “suppressed H2O2-induced oxidative stress”. In data set [10], the “Inhibition Mode AChE” value was “Competitive”.

Turning to `Oc1cc(O)cc(Oc2c(O)cc(O)c3c2Oc2c(O)cc(O)cc2O3)c1` [Eckol, 4-(3,5-dihydroxyphenoxy)dibenzo-p-dioxin-1,3,6,8-tetrol], the Ki in data set [1] was found to be 31.2 µM; in data set [10] it was 37.3 µM. Besides, in data set [1], the “Inhibition Mode BACE1” value is “Non-competitive”. Also, the values for the inhibition at 50 µM in [2], in data set [8] and in data set [11] were 19.3 ± 1.52%, 1.48 ± 0.19% and 6.06 ± 0.13%, respectively. For the same compound, the inhibition at 100 µM in data set [2] amounted to 10.6 ± 0.53%; in [8] it was 2.65 ± 0.06%; in data set [11], 4.37 ± 0.27%. Further, the “Lipinski's requirements” value in [3] was “meets Lipinski′s requirements for acceptable oral bioavailability”. In addition, the IC50 in data set [4] was 7.67 ± 0.71 µM; in [7], above 800 µM; in data set [9] it was 10 ± 0.94 µM. Further, the “Inhibitory activity Trypsin” value worked out at 3.59 ± 0.57% in data set [6] (50 μM compound) and 4.73 ± 0.25% in [6] (100 μM compound). Moreover, in data set [15], the H2O2-induced oxidative stress result was “suppressed H2O2-induced oxidative stress”. For the same compound, the “Inhibition Mode AChE” value in data set [10] is reported as “Competitive”.
